# Laboratory results reported in patent publication US20220380374A1, “1,4-DIHYDROBENZO[D]PYRAZOLO[3,4-F][1,3]DIAZEPINE DERIVATIVES AND RELATED COMPOUNDS AS LRRK2, NUAK1 AND/OR TYK2 KINASE MODULATORS FOR THE TREATMENT OF E.G. AUTOIMMUNE DISEASE” (Origenis GMBH, priority 2019, published 2022).
# Target: T1, wt human NUAK1, full length (Homo sapiens, UniProt O60285)
# T1 construct: 8 nM wt human NUAK1, full length (ThermoFisher/USA); purchased ThermoFisher/USA
# T1 sequence (O60285 1-661): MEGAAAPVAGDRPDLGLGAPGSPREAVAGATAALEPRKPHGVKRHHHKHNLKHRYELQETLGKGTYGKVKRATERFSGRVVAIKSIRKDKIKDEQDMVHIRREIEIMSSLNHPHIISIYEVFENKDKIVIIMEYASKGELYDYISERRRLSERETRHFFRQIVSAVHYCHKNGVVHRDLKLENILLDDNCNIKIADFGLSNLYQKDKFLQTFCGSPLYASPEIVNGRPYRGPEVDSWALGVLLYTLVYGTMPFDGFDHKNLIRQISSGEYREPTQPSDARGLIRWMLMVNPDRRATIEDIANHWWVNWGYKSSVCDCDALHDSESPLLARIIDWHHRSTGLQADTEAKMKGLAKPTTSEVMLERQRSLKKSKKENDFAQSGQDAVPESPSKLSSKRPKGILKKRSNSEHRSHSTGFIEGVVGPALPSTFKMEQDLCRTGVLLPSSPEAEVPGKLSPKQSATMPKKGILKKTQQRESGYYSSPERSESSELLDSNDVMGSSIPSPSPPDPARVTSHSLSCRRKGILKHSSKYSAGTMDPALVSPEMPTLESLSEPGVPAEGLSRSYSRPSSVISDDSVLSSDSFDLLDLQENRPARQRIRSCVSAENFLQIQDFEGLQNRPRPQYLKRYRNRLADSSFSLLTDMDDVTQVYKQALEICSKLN
# Experiment: TR-FRET LanthaScreen Eu Kinase Binding Assay, NUAK1
# Conditions: 5 nM Kinase Tracer 236; read-out: IC50, inhibitory activity toward NUAK1
# Method: The basic protocol for TR-FRET LanthaScreen Eu Kinase Binding Assay inhibitor studies were performed as follows. LanthaScreen Kinase Binding Assays (ThermoFisher/USA) to evaluate inhibitors were performed by addition of 5 μl of test compound in corresponding DMSO dilutions/5 μl of kinase/antibody mixture, 5 μl of tracer into 384 well small volume plates. After incubation for 1 hour at room temperature, plates were read. Data analysis of emission ratios was according to LanthaScreen Eu Kinase Binding Assay protocol.
# Kinase and assay components were adjusted to final concentrations according to the kit protocol. For LRRK2: 5 nM wt human LRRK2, catalytic site, or G2019S human LRRK2, catalytic site (ThermoFisher/USA), 2 nM Eu-Anti-GST Antibody, 10 nM Kinase Tracer 236 in 1× Kinase Buffer A. For NUAK1: 8 nM wt human NUAK1, full length (ThermoFisher/USA), 2 nM Eu-Anti-His Antibody, 5 nM Kinase Tracer 236 in 1× Kinase Buffer A.
row,SMILES,IC50
1,"Fc1cccc(F)c1C1=Nc2cn[nH]c2-c2cc(OC(F)(F)F)ccc2N1 [Compound 40, 5-(2,6-difluorophenyl)-9-(trifluoromethoxy)-1,6-dihydrobenzo[d]pyrazolo[3,4-f][1,3]diazepine]",100 to 1000 nM
2,"Fc1cccc(Cl)c1C1=Nc2cn[nH]c2-c2cc(OC(F)(F)F)ccc2N1 [Compound 41, 5-(2-chloro-6-fluorophenyl)-9-(trifluoromethoxy)-1,6-dihydrobenzo[d]pyrazolo[3,4-f][1,3]diazepine]",100 to 1000 nM
3,"CCc1ccc2c(c1)-c1[nH]ncc1N=C(c1c(F)cccc1F)N2 [Compound 44, 5-(2,6-difluorophenyl)-9-ethyl-1,6-dihydrobenzo[d]pyrazolo[3,4-f][1,3]diazepine]",10 to 100 nM
4,"Fc1cccc(F)c1C1=Nc2cn[nH]c2-c2cc(C(F)(F)F)ccc2N1 [Compound 46, 5-(2,6-difluorophenyl)-9-(trifluoromethyl)-1,6-dihydrobenzo[d]pyrazolo[3,4-f][1,3]diazepine]",10 to 100 nM
5,"Fc1cccc(Cl)c1C1=Nc2cn[nH]c2-c2cc(C(F)(F)F)ccc2N1 [Compound 47, 5-(2-chloro-6-fluorophenyl)-9-(trifluoromethyl)-1,6-dihydrobenzo[d]pyrazolo[3,4-f][1,3]diazepine]",100 to 1000 nM
6,"FCc1ccc2c(c1)-c1[nH]ncc1N=C(c1c(F)cccc1F)N2 [Compound 51, 5-(2,6-difluorophenyl)-9-(fluoromethyl)-1,6-dihydrobenzo[d]pyrazolo[3,4-f][1,3]diazepine]",100 to 1000 nM
7,"Fc1cccc(F)c1C1=Nc2cn[nH]c2-c2cc(-c3ccc[nH]3)cnc2N1 [Compound 87, 5-(2,6-difluorophenyl)-9-(1H-pyrrol-2-yl)-1,6-dihydropyrazolo[4,3-d]pyrido[3,2-f][1,3]diazepine]",100 to 1000 nM
8,"CC(C)Oc1ccc2c(c1)NC(c1c(F)cccc1F)=Nc1cn[nH]c1-2 [Compound 100, 5-(2,6-difluorophenyl)-8-isopropoxy-1,6-dihydrobenzo[d]pyrazolo[3,4-f][1,3]diazepine]",100 to 1000 nM
9,"Fc1cccc(F)c1C1=Nc2cn[nH]c2-c2cc(OC3CCOCC3)ccc2N1 [Compound 102, 5-(2,6-difluorophenyl)-9-((tetrahydro-2H-pyran-4-yl)oxy)-1,6-dihydrobenzo[d]pyrazolo[3,4-f][1,3]diazepine]",100 to 1000 nM
10,"CN(C)C(=O)Oc1ccc2c(c1)-c1[nH]ncc1NC(c1c(F)cccc1F)=N2 [Compound 136, 5-(2,6-difluorophenyl)-1,4-dihydrobenzo[d]pyrazolo[3,4-f][1,3]diazepin-9-yl dimethylcarbamate]",100 to 1000 nM
11,"Fc1cccc(F)c1C1=Nc2c(C3CC3)n[nH]c2-c2ccccc2N1 [Compound 137, 3-cyclopropyl-5-(2,6-difluorophenyl)-1,6-dihydrobenzo[d]pyrazolo[3,4-f][1,3]diazepine]",100 to 1000 nM
12,"NC(=O)c1cnc2c(c1)-c1[nH]ncc1N=C(c1c(F)cccc1F)N2 [Compound 140, 5-(2,6-difluorophenyl)-1,6-dihydropyrazolo[4,3-d]pyrido[3,2-f][1,3]diazepine-9-carboxamide]",100 to 1000 nM
13,"CSc1n[nH]c2c1NC(c1c(F)cccc1F)=Nc1ccc(C)cc1-2 [Compound 145, 5-(2,6-difluorophenyl)-9-methyl-3-(methylthio)-1,4-dihydrobenzo[d]pyrazolo[3,4-f][1,3]diazepine]",100 to 1000 nM
14,"CCc1cc(F)c2c(c1)-c1[nH]ncc1NC(c1c(F)cccc1F)=N2 [Compound 167, 5-(2,6-difluorophenyl)-9-ethyl-7-fluoro-1,4-dihydrobenzo[d]pyrazolo[3,4-f][1,3]diazepine]",100 to 1000 nM
15,"COc1cc(F)c(C2=Nc3cn[nH]c3-c3cc(C)ccc3N2)c(F)c1 [Compound 173, 5-(2,6-difluoro-4-methoxyphenyl)-9-methyl-1,6-dihydrobenzo[d]pyrazolo[3,4-f][1,3]diazepine]",10 to 100 nM
16,"Cc1ccc2c(c1)-c1[nH]ncc1N=C(c1c(F)cc(F)cc1F)N2 [Compound 175, 9-methyl-5-(2,4,6-trifluorophenyl)-1,6-dihydrobenzo[d]pyrazolo[3,4-f][1,3]diazepine]",10 to 100 nM
